Data: article PMC10564737, “Structure-based design of a phosphotyrosine-masked covalent ligand targeting the E3 ligase SOCS2” (Nature Communications, 2023)
Values joined by “and” are separate entries in the source; they are usually repeats but may differ in a detail not shown here. Identical values can stand only once.

Molecular target: T1, SBC2 (Homo sapiens, UniProt O14508)
T1 construct: SOCS2 (amino acids 32–198); His6 (N, cleaved yes); made in house; host or cells: E. coli BL21(DE3)
Assay: Covalent fluorescence polarization (FP) probe displacement assay
Type: binding
Settings: for Anisotropy based on Raw Data (485): Cycle 7 (30 min)
Text: With the specific covalent modification of Cys111 established, we decided to fully characterize MN551 as a covalent SOCS2 inhibitor. […] (Fig. 2g, h, Supplementary Fig. 9). Due to the covalent nature of the competing inhibitor, a time-dependent reduction in the fraction of protein-bound probe is observed. […] This value illustrates reasonable specificity for a covalent inhibitor, with nonetheless scope for future optimization. In addition to characterizing the kinetic covalency parameters, we have also assessed the stability of the MN551 by monitoring its reactivity (half-life >70 min) with reduced glutathione (GSH) (Supplementary Fig. 10)[35].
To monitor the SBC2-ligand binding kinetics we designed a fluorescein-labeled small-molecule probe - compound 26. The fluorescence polarization (anisotropy) of a threefold serial dilution of 50 µM SBC2 in 10 nM of the probe in 100 mM HEPES pH 7.5, 50 mM NaCl, 0.5 mM TCEP, 2% DMSO was measured to determine the KL (Supplementary Fig. 9A) (BMG Labtech PHERAstar – firmware v1.33). Protein titration and the curves were fitted using GraphPad Prism 9, using one-site fitting models to determine the probe binding constant, KL. Samples were run in triplicate in 384 well plates, using a total volume per well of 16 μL. The bound fraction of the probe is measure using the equation:1 Fb=Af−A/Af−Ab Where,
A time-dependent reduction in probe anisotropy were measured for a 2-fold serial dilution of […] compound MN551 in 10 nM probe +300 μM SBC2. To determine the initial reversible binding affinity, the initial bound fraction of the probe at time = 0, Fbo (the y-intercept in Fb v/s Time plot, Supplementary Fig. 9B) was plotted against MN551 concentration, and the obtained IC50 is then converted to Ki (Supplementary Fig. 9C)[17]. The slope from Fb versus time graph when divided by Fbo gives rate of covalency, kobs. A plot of kobs v/s MN551 concentration using Michaelis–Menten model of GraphPad Prism 9, provides the parameters kinact (maximum potential rate of inactivation) and KI (concentration of MN551 at which kobs = kinact/2) (Supplementary Fig. 9D, E).
The observed first-order rate constant, kobs is related to KI and kinact by the equation:2 kobs=kinactI/KI+I
At [I]«[KI] the above equation is converted to3 […]
The slope from the plot of kobs against concentration of MN551 gives us the covalent efficiency parameter kinact/KI (Supp Fig. 9F)[30],[33].

[1] = MN551 48.4003 nM, Cycle 12 (55 min)
[2] = MN551 67.7604 nM, Cycle 12 (55 min)
[3] = MN551 94.8645 nM, Cycle 12 (55 min)
[4] = MN551 132.81 nM, Cycle 6 (25 min)
[5] = MN551 132.81 nM, Cycle 12 (55 min)
[6] = MN551 185.934 nM, Cycle 6 (25 min)
[7] = MN551 185.934 nM, Cycle 12 (55 min)

T1 sequence (O14508 32-198): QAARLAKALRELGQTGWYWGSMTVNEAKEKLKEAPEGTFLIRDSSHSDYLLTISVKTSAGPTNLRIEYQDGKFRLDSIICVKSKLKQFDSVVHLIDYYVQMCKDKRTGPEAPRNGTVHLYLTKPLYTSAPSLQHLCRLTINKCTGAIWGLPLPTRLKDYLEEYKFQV
T1 sequence (Q15370 1-104 partner limits assumed): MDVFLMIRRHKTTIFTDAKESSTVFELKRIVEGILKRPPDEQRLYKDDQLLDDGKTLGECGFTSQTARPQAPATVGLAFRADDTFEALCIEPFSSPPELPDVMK
T1 sequence (Q15369 17-112 partner limits assumed): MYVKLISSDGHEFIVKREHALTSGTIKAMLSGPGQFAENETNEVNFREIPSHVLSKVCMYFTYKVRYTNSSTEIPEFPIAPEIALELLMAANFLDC

## O=C(CCl)Nc1cccc(CNC(=O)[C@H](Cc2ccc(OP(=O)(O)O)cc2)NC(=O)Cc2ccc(F)cc2)c1 [MN551]
MN551 48.4003 nM, Cycle 2 (5 min)
  Fb, fraction bound: 1.049 and 0.9991 and 1.04
[1]
  Anisotropy: 281.3 and 275.7 and 274.4
  Fb: 1.033 and 1.011 and 0.9942
MN551 48.4003 nM, Cycle 19 (90 min), n=1
  Anisotropy normalised (0 nM MN551 = 1, free probe = 0): 1.03 and 1.015 (2×)
MN551 48.4003 nM, Cycle 20 (95 min), n=1
  Anisotropy normalised (0 nM MN551 = 1, free probe = 0): 1.011 and 0.999 and 0.9749
MN551 48.8281 nM
  Anisotropy based on Raw Data (485): 280.9 and 281.7 and 280.6
MN551 48.8281 nM, Cycle 2 (5 min)
  Fb, fraction bound: 1.013 and 1.049 and 1.036
MN551 48.8281 nM, Cycle 11 (50 min)
  Anisotropy: 280 and 280.2 and 277
MN551 48.8281 nM, Cycle 12 (55 min)
  Anisotropy: 279.7 and 280.1 and 278.6
MN551 48.8281 nM, Cycle 18 (85 min), n=1
  Anisotropy data 485,520,520: 276.3 and 276.1 and 275.6
MN551 67.7604 nM
  Anisotropy based on Raw Data (485): 278.6 and 278.4 and 280
MN551 67.7604 nM, Cycle 13 (60 min), n=1
  Normalised anisotropy (0 nM MN551 = 1, free probe = 0): 1.005 and 0.9558 and 1.011
MN551 67.7604 nM, Cycle 14 (65 min), n=1
  Normalised anisotropy (0 nM MN551 = 1, free probe = 0): 1.03 and 1.001 and 1.016
MN551 67.7604 nM, Cycle 2 (5 min)
  Fb, fraction bound: 1.032 and 1.001 and 1.045
MN551 67.7604 nM, Cycle 3 (10 min)
  Fb, fraction bound: 1.036
[2]
  Anisotropy: 277.4 and 276.4 and 273
  Fb: 0.9963 and 1.017 and 0.9808
MN551 67.7604 nM, Cycle 19 (90 min), n=1
  Anisotropy normalised (0 nM MN551 = 1, free probe = 0): 1.021 and 1.031 and 0.9864
MN551 67.7604 nM, Cycle 20 (95 min), n=1
  Anisotropy normalised (0 nM MN551 = 1, free probe = 0): 0.999 and 0.9767 and 0.9903
MN551 94.8645 nM
  Anisotropy based on Raw Data (485): 276.5 and 276.4 and 275
MN551 94.8645 nM, Cycle 13 (60 min), n=1
  Normalised anisotropy (0 nM MN551 = 1, free probe = 0): 0.9841 and 0.9576 and 0.9759
MN551 94.8645 nM, Cycle 14 (65 min), n=1
  Normalised anisotropy (0 nM MN551 = 1, free probe = 0): 1.002 and 0.9934 and 0.9731
MN551 94.8645 nM, Cycle 15 (70 min), n=1
  Normalised anisotropy (0 nM MN551 = 1, free probe = 0): 1.0078
MN551 94.8645 nM, Cycle 2 (5 min)
  Fb, fraction bound: 1.026 and 1.011 and 0.9914
MN551 94.8645 nM, Cycle 3 (10 min)
  Fb, fraction bound: 1.0139 and 1.041 and 0.9705
MN551 94.8645 nM, Cycle 6 (25 min)
  Anisotropy data 485,520,520: 273.7 and 266.4 and 265.9
[3]
  Anisotropy: 274 and 273.4 and 270.5
  Fb: 0.9646 and 0.9885 and 0.9568
MN551 94.8645 nM, Cycle 19 (90 min), n=1
  Anisotropy normalised (0 nM MN551 = 1, free probe = 0): 0.9933 and 1.003 and 0.9475
MN551 94.8645 nM, Cycle 20 (95 min), n=1
  Anisotropy normalised (0 nM MN551 = 1, free probe = 0): 0.9691 and 0.9574 and 0.9304
MN551 97.6562 nM
  Anisotropy based on Raw Data (485): 278.3 and 282.9 and 277.5
MN551 97.6562 nM, Cycle 2 (5 min)
  Fb, fraction bound: 1.002 and 1.056 and 1.014
MN551 97.6562 nM, Cycle 11 (50 min)
  Anisotropy: 278.8 and 281.3 and 277
MN551 97.6562 nM, Cycle 12 (55 min)
  Anisotropy: 279.1 and 279.7 and 276.5
MN551 97.6562 nM, Cycle 18 (85 min), n=1
  Anisotropy data 485,520,520: 274.3 and 275.7 and 270.8
MN551 132.81 nM
  Anisotropy based on Raw Data (485): 277.4 and 277.3 and 272.7
MN551 132.81 nM, Cycle 13 (60 min), n=1
  Normalised anisotropy (0 nM MN551 = 1, free probe = 0): 0.9411 and 0.9327 and 0.945
MN551 132.81 nM, Cycle 14 (65 min), n=1
  Normalised anisotropy (0 nM MN551 = 1, free probe = 0): 0.9679 and 0.9614 and 0.9597
MN551 132.81 nM, Cycle 15 (70 min), n=1
  Normalised anisotropy (0 nM MN551 = 1, free probe = 0): 0.9669 and 0.9677 and 0.9327
MN551 132.81 nM, Cycle 2 (5 min)
  Fb, fraction bound: 1.001 and 1.004 and 1.003
MN551 132.81 nM, Cycle 3 (10 min)
  Fb, fraction bound: 0.9889 and 1.004 and 0.9829
[4]
  Anisotropy data 485,520,520: 272.9 and 266.7 and 268.7
  Fb: 1.0105 and 1.013 and 1.036
[5]
  Anisotropy: 272.8 and 270.5 and 270
  Fb: 0.9534 and 0.9607 and 0.952
MN551 132.81 nM, Cycle 19 (90 min), n=1
  Anisotropy normalised (0 nM MN551 = 1, free probe = 0): 0.9528 and 0.958 and 0.9524
MN551 132.81 nM, Cycle 20 (95 min), n=1
  Anisotropy normalised (0 nM MN551 = 1, free probe = 0): 0.9516 and 0.9273 and 0.9285
MN551 185.934 nM
  Anisotropy based on Raw Data (485): 278.1 and 275.4 and 274.1
MN551 185.934 nM, Cycle 13 (60 min), n=1
  Normalised anisotropy (0 nM MN551 = 1, free probe = 0): 0.927 and 0.9051 and 0.9324
MN551 185.934 nM, Cycle 14 (65 min), n=1
  Normalised anisotropy (0 nM MN551 = 1, free probe = 0): 0.9406 and 0.935 and 0.929
MN551 185.934 nM, Cycle 15 (70 min), n=1
  Normalised anisotropy (0 nM MN551 = 1, free probe = 0): 0.9561 and 0.9184 and 0.9202
MN551 185.934 nM, Cycle 3 (10 min)
  Fb, fraction bound: 0.9759 and 0.9879 and 0.9619
[6]
  Anisotropy data 485,520,520: 271.2 and 265.9 and 264.5
  Fb: 1.005 and 0.998 and 1.018
[7]
  Anisotropy: 270.4 and 269.3 and 268.1
  Fb: 0.931 and 0.9492 and 0.9338
MN551 185.934 nM, Cycle 19 (90 min), n=1
  Anisotropy normalised (0 nM MN551 = 1, free probe = 0): 0.9172 and 0.936 and 0.9397
MN551 185.934 nM, Cycle 20 (95 min), n=1
  Anisotropy normalised (0 nM MN551 = 1, free probe = 0): 0.9014 and 0.9041 and 0.8899
MN551 195.312 nM
  Anisotropy based on Raw Data (485): 281 and 276.5 and 273
MN551 195.312 nM, Cycle 2 (5 min)
  Fb, fraction bound: 0.9639 and 1.006 and 1.008
MN551 195.312 nM, Cycle 12 (55 min)
  Anisotropy: 272.9 and 273.5 and 273
MN551 260.308 nM
  Anisotropy based on Raw Data (485): 270.2 and 268.2 and 264.5
MN551 260.308 nM, Cycle 13 (60 min), n=1
  Normalised anisotropy (0 nM MN551 = 1, free probe = 0): 0.8241 and 0.8101 and 0.8658
MN551 260.308 nM, Cycle 14 (65 min), n=1
  Normalised anisotropy (0 nM MN551 = 1, free probe = 0): 0.8651 and 0.8427 and 0.8474
MN551 260.308 nM, Cycle 15 (70 min), n=1
  Normalised anisotropy (0 nM MN551 = 1, free probe = 0): 0.8655 and 0.8321 and 0.8452
MN551 260.308 nM, Cycle 3 (10 min)
  Fb, fraction bound: 0.9027 and 0.9023 and 0.8716
MN551 260.308 nM, Cycle 6 (25 min)
  Anisotropy data 485,520,520: 268.3 and 257.5 and 257.9
